# Test results from article PMC12040169 (PLOS Biology, 2025).
# Experiment: in vitro
# Conditions: human, hela cells, % viability
row,Structure (SMILES),"viability at 28.5 h, 10 µM"
1,Nc1cc(S(=O)(=O)C(F)(F)F)ccc1C(=O)O [CBK286646],87%
2,CCCCC(NC(=O)c1cc2ccccc2[nH]1)C(=O)O (centres unmarked) [CBK286647],85.9%
3,O=C(CC(CN1CCN(c2ccccn2)CC1)C(=O)O)NCc1ccccc1 (centres unmarked) [CBK286649],89%
4,O=C(O)COc1ccc(/C=C/c2nc3n(n2)C=COc2ccccc2-3)cc1 [CBK286650],80.2%
5,O=C(O)Cc1nnc(CNc2ccc(Cl)cc2)[nH]1 [CBK286651],81.7%
6,CN1CCN(C(C(=O)O)c2c[nH]c3cc(OCc4ccccc4)ccc23)CC1 (centres unmarked) [CBK286654],84.6%
7,CC(C)C[C@H](NC(=O)COc1ccc2nc3n(c(=O)c2c1)CCCCC3)C(=O)O [CBK286656],88.3%
8,CCOc1ccc(C(=O)CCNCC(=O)O)cc1 [CBK286657],94.4%
9,O=C(O)/C=C/C(=O)N(Cc1ccccn1)Cc1ccco1 [CBK286660],84.2%
10,Cc1nn(Cc2ccc(Cl)cc2)c(C)c1C(N)C(=O)O (centres unmarked) [CBK286661],89.7%
11,CC(=O)c1ccc(NC(=O)[C@@]2(CC(=O)O)CC(c3ccc(F)cc3)=NO2)cc1 [CBK286663],85%
12,O=C(O)C(c1c[nH]c2ccccc12)N1CCc2ccccc2C1 (centres unmarked) [CBK286664],84.5%
13,O=C(CCn1ccc2ccc(F)cc21)NC[C@H]1CC[C@H](C(=O)O)CC1 [CBK286666],86.2%
14,C=C(C)CN1CCN(C(C(=O)O)c2c[nH]c3ccc(OCc4ccccc4)cc23)CC1 (centres unmarked) [CBK286668],80.6%
15,CC(C)C(NC(=O)N1c2ccccc2NC(=O)C1C(C)C)C(=O)O (centres unmarked) [CBK286670],100%
16,O=C(COc1ccc(Br)cc1C(=O)O)Nc1ccc(F)cc1 [CBK286671],92%
17,O=C(O)CC1(O)C(=O)N(Cc2ccccc2)c2ccccc21 (centres unmarked) [CBK286673],104%
18,Cc1c(CC(=O)O)c(=O)oc2cc(OCc3ccc(F)cc3)ccc12 [CBK286674],103%

row,Structure (SMILES),"viability at 28.5 h, 10 µM"
1,COc1ccc2[nH]cc(C(C(=O)O)N3CCCCC3)c2c1 (centres unmarked) [CBK286676],85.3%
2,CCOc1ccc(Cc2nnnn2CC(=O)O)cc1 [CBK286677],91.2%
3,Cc1ccc(C)c(NC(=O)N[C@@H](CC(C)C)C(=O)O)c1 [CBK286678],89%
4,O=C(O)CCC(=O)NCC1(c2ccccc2)CCCC1 [CBK286679],89.7%
5,CC(=O)N1CCN(C(C(=O)O)c2c[nH]c3cc(NC(=O)c4ccccc4)ccc23)CC1 (centres unmarked) [CBK286680],84.9%
6,CN(C)S(=O)(=O)N1CCC(C(=O)O)(c2ccccc2)CC1 [CBK286681],90.3%
7,O=C(O)C1CCN(C(=O)CCN2C(=O)[C@@H]3Cc4ccccc4CN3C2=O)CC1 [CBK286682],88.2%
8,O=C(O)c1ccccc1SC1CCc2ccccc2NC1=O (centres unmarked) [CBK286683],83.1%
9,O=C(O)c1ccc(S(=O)(=O)N(CC2CC=CCC2)CC2CCCO2)cc1 (centres unmarked) [CBK286685],101%
10,O=C(O)C(c1c[nH]c2ccc(OCc3ccccc3)cc12)N1CCCC1 (centres unmarked) [CBK286686],97.6%
11,COc1ccc2c(ccn2CC(=O)NC[C@H]2CC[C@H](C(=O)O)CC2)c1 [CBK286687],110%
12,CCOC(=O)N1CCN(C(C(=O)O)c2c[nH]c3cc(OCc4ccccc4)ccc23)CC1 (centres unmarked) [CBK286689],97%
13,O=C(CNC(=O)c1ccccc1C(=O)O)Nc1ccccc1 [CBK286690],94.1%
14,COc1ccccc1N1CCN(c2ccc([N+](=O)[O-])cc2C(=O)O)CC1 [CBK286692],96.3%
15,CCOc1ccc2c(c1)C(=O)c1cc(OCC(=O)O)ccc1-2 [CBK286693],94.3%
16,CCNC(=O)CN1CCN(C(C(=O)O)c2c[nH]c3ccc(C)cc23)CC1 (centres unmarked) [CBK286694],98%
17,CN1CCN(C(C(=O)O)c2cn(CCC(=O)O)c3ccc(Br)cc23)CC1 (centres unmarked) [CBK286698],103%
